Experimental data from the supplement of paper PMC10307832.

Experiments:
Test in all cases: relative viability (nuclei count vs DMSO), 5 days (fraction); higher = more cells survive
QS11 + Alpelisib = compound: C1CC2=C(C1)C=C(C=C2)OC3=NC(=C4C(=N3)N(C=N4)CC5=CC=C(C=C5)C6=CC=CC=C6)N[C@@H](CC7=CC=CC=C7)CO [QS11] + Cc1nc(NC(=O)N2CCC[C@H]2C(N)=O)sc1-c1ccnc(C(C)(C)C(F)(F)F)c1 [Alpelisib] (partner 2 µM)
In short: (§1)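 Cells from lung cancer lines were seeded into 1536-well plates and, one day later, dosed by pin tool. Treatments were either a single drug or a fixed dose of an anchor drug with five library-drug doses (not always all listed) in √10 steps. After 5 days, nuclei were stained in a one-step fixation (final 0.05% Triton X-100, 1% formaldehyde, 1 ug/ml Hoechst) and counted on 4× images, and relative viability is the treated-to-vehicle nuclei ratio, as the median of duplicate plates.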

Darinaparsin + Dasatinib = compound: C[As](C)SC[C@H](NC(=O)CC[C@H](N)C(=O)O)C(=O)NCC(=O)O [Darinaparsin] + Cc1nc(Nc2ncc(C(=O)Nc3c(C)cccc3Cl)s2)cc(N2CCN(CCO)CC2)n1 [Dasatinib] (partner 0.075 µM)
In short: as §1

AZ628 + Vorinostat = compound: CC1=C(C=C(C=C1)NC(=O)C2=CC(=CC=C2)C(C)(C)C#N)NC3=CC4=C(C=C3)N=CN(C4=O)C [AZ628] + O=C(CCCCCCC(=O)Nc1ccccc1)NO [Vorinostat] (partner 1 µM)
In short: as §1

AZ628 + Trametinib = compound: CC1=C(C=C(C=C1)NC(=O)C2=CC(=CC=C2)C(C)(C)C#N)NC3=CC4=C(C=C3)N=CN(C4=O)C [AZ628] + CC(=O)Nc1cccc(-n2c(=O)n(C3CC3)c(=O)c3c(Nc4ccc(I)cc4F)n(C)c(=O)c(C)c32)c1 [Trametinib] (partner 0.02 µM)
In short: as §1

Cell Line | relative viability (QS11 + Alpelisib; first compound 0.08 µM) | relative viability (QS11 + Alpelisib; first compound 0.253 µM) | relative viability (QS11 + Alpelisib; first compound 0.8 µM) | relative viability (QS11 + Alpelisib; first compound 2.53 µM) | relative viability (QS11 + Alpelisib; first compound 8 µM) | relative viability (Darinaparsin + Dasatinib; first compound 0.08 µM) | relative viability (Darinaparsin + Dasatinib; first compound 0.8 µM) | relative viability (Darinaparsin + Dasatinib; first compound 2.53 µM) | relative viability (Darinaparsin + Dasatinib; first compound 8 µM) | relative viability (AZ628 + Vorinostat; first compound 0.08 µM) | relative viability (AZ628 + Vorinostat; first compound 0.253 µM) | relative viability (AZ628 + Vorinostat; first compound 0.8 µM) | relative viability (AZ628 + Vorinostat; first compound 2.53 µM) | relative viability (AZ628 + Vorinostat; first compound 8 µM) | relative viability (AZ628 + Trametinib; first compound 0.08 µM) | relative viability (AZ628 + Trametinib; first compound 0.253 µM) | relative viability (AZ628 + Trametinib; first compound 0.8 µM) | relative viability (AZ628 + Trametinib; first compound 2.53 µM) | relative viability (AZ628 + Trametinib; first compound 8 µM)
Calu-6 | 0.98 | 0.974 | 0.856 | 0.99 | 0.884 | – | – | – | – | – | – | – | – | – | – | – | – | – | –
ChaGo-K-1 | – | – | – | – | – | 0.525 | 0.611 | 0.72 | 0.649 | 0.773 | 0.75 | 0.753 | 0.754 | 0.743 | 0.911 | 0.879 | 0.881 | 0.873 | 0.839
EBC-1 | 0.932 | 0.77 | 0.76 | 0.816 | 0.667 | – | – | – | – | – | – | – | – | – | – | – | – | – | –
EKVX | 0.895 | 0.821 | – | 0.86 | 0.906 | 0.504 | 0.488 | 0.53 | 0.512 | 0.952 | 0.698 | 0.848 | 0.579 | 0.53 | 0.368 | 0.227 | 0.248 | 0.273 | 0.195
EMC-BAC-2 | 0.802 | 0.698 | 0.887 | 0.759 | 0.594 | 0.34 | 0.368 | 0.302 | 0.35 | 0.878 | 0.57 | 0.642 | 0.562 | 0.449 | 0.588 | 0.442 | 0.416 | 0.365 | 0.43
